Laboratory results as given in patent publication US9688695B2, “Imidazothiadiazole and imidazopyrazine derivatives as protease activated receptor 4 (PAR4) inhibitors for treating platelet aggregation” (BRISTOL-MYERS SQUIBB COMPANY, priority 2012, dated 2017).
pEC50, pIC50: −log10 of the molar value.

molecular target: T1, PAR4 (Homo sapiens (Human), UniProt Q96RI0); experiment: FLIPR assay in PAR4-expressing HEK293 cells (PAR4 antagonist activity, calcium mobilization); format: cell-based; conditions: H-Ala-Phe(4-F)-Pro-Gly-Trp-Leu-Val-Lys-Asn-Gly-NH2-induced calcium mobilization
How it was run: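 HEK293 EBNA cells stably expressing human PAR4 (also endogenous PAR1) preincubated 30 min at room temperature with compound in HBSS/10 mM HEPES, 0.67% DMSO final. PAR4 agonist peptide then added and intracellular calcium mobilization monitored by fluorescence.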

T1 sequence (Q96RI0 18-385): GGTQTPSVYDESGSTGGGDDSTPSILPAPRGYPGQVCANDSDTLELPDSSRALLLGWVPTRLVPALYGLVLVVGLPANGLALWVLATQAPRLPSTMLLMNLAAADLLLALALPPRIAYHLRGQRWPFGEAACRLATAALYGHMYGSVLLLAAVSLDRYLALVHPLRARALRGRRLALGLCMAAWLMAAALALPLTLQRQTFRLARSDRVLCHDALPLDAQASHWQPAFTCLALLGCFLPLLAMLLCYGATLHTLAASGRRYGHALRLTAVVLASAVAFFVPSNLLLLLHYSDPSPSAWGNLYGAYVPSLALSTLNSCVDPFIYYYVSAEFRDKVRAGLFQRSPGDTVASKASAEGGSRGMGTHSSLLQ

In order of rising pEC50:
1. COc1cc(OCc2csc(N3CCC(N(C)C)CC3)n2)c2cc(-c3cn4nc(C)ccc4n3)oc2c1 [Example 252]  6.06
2. COc1cc(OCc2csc(N3CCN(C4CCOCC4)CC3)n2)c2cc(-c3cn4nc(C)ccc4n3)oc2c1 [Example 286]  6.96
3. COc1cc(OCc2csc(-c3ccc(C(=O)NC4COC4)cc3)n2)c2cc(-c3cn4nc(OC)sc4n3)oc2c1 [Example 295]  7.04
4. COc1cc(OCc2csc(-c3ccc(C(=O)NCCN(C)C)cc3)n2)c2cc(-c3cn4nc(OC)sc4n3)oc2c1 [Example 307]  7.62
5. COCCNc1nc(COc2cc(OC)cc3oc(-c4cn5nc(C)ccc5n4)cc23)cs1 [Example 251]  7.96
6. COc1cc(OCc2csc(N3CC[C@@H](O)C3)n2)c2cc(-c3cn4nc(C)ccc4n3)oc2c1 [Example 253]  8.01
7. COc1cc(OCc2csc(Nc3cccc(C#N)c3)n2)c2cc(-c3cn4nc(C)ccc4n3)oc2c1 [Example 260]  8.15
8. COc1cc(OCc2csc(N(C)C(C)C)n2)c2cc(-c3cn4nc(C)ccc4n3)oc2c1 [Example 280]  8.21
9. COc1cc(OCc2csc(N3CCN(Cc4cccnc4)CC3)n2)c2cc(-c3cn4nc(C)ccc4n3)oc2c1 [Example 270]  8.24
10. COc1cc(OCc2csc(Nc3cccc(C)c3)n2)c2cc(-c3cn4nc(C)ccc4n3)oc2c1 [Example 267]  8.38
11. COc1cc(OCc2csc(N(C)CCC#N)n2)c2cc(-c3cn4nc(C)ccc4n3)oc2c1 [Example 250]  8.44
12. COc1cc(OCc2csc(Nc3cccc(N(C)C)c3)n2)c2cc(-c3cn4nc(C)ccc4n3)oc2c1 [Example 248]  8.51
13. COc1cccc(Nc2nc(COc3cc(OC)cc4oc(-c5cn6nc(C)ccc6n5)cc34)cs2)c1 [Example 283]  8.54
14. COc1cc(OCc2csc(NCc3cccc(N(C)C)c3)n2)c2cc(-c3cn4nc(C)ccc4n3)oc2c1 [Example 269]  8.60
15. C=CCN(C)C(=O)c1ccc(-c2nc(COc3cc(OC)cc4oc(-c5cn6nc(OC)sc6n5)cc34)cs2)cc1 [Example 296]  8.66
16. COc1cc(OCc2csc(N3CCC(F)CC3)n2)c2cc(-c3cn4nc(C)ccc4n3)oc2c1 [Example 272]  8.70
17. COc1cc(OCc2csc(NC(C)C)n2)c2cc(-c3cn4nc(C)ccc4n3)oc2c1 [Example 255]  8.77
18. COc1cc(OCc2csc(-c3ccc(C(=O)N4C(C)CCC4C)cc3)n2)c2cc(-c3cn4nc(OC)sc4n3)oc2c1 (centres unmarked) [Example 317]  8.80
19. COCCN(CCOC)c1nc(COc2cc(OC)cc3oc(-c4cn5nc(C)ccc5n4)cc23)cs1 [Example 246]  8.85
20. COc1cc(OCc2csc(N3CCC4(CC3)CC4)n2)c2cc(-c3cn4nc(C)ccc4n3)oc2c1 [Example 278]  8.85
21. CCC1CCN(c2nc(COc3cc(OC)cc4oc(-c5cn6nc(C)ccc6n5)cc34)cs2)CC1 [Example 271]  8.89
22. COc1cc(OCc2csc(-c3ccc(C(=O)NC4CC4)cc3)n2)c2cc(-c3cn4nc(OC)sc4n3)oc2c1 [Example 315]  8.89
23. COc1cc(OCc2cscn2)c2cc(-c3cn4nc(OC)sc4n3)oc2c1 [Example 34]  8.92
24. COc1cc(OCc2csc(N3CCN(c4ccccn4)CC3)n2)c2cc(-c3cn4nc(C)ccc4n3)oc2c1 [Example 263]  8.92
25. COc1cc(OCc2csc(-c3ccc(C(=O)N4CCC4)cc3)n2)c2cc(-c3cn4nc(OC)sc4n3)oc2c1 [Example 289]  8.92
26. CCNC(=O)c1ccc(-c2nc(COc3cc(OC)cc4oc(-c5cn6nc(OC)sc6n5)cc34)cs2)cc1 [Example 306]  8.92
27. COc1cc(OCc2csc(N3CCOC(C)C3)n2)c2cc(-c3cn4nc(C)ccc4n3)oc2c1 (centres unmarked) [Example 277]  8.96
28. COc1cc(OCc2csc(N3CCN(c4cccc(Cl)n4)CC3)n2)c2cc(-c3cn4nc(C)ccc4n3)oc2c1 [Example 284]  8.96
29. COc1cc(OCc2csc(-c3ccc(C(=O)N(C)C4COC4)cc3)n2)c2cc(-c3cn4nc(OC)sc4n3)oc2c1 [Example 298]  9.00
30. COc1cc(OCc2csc(-c3ccc(C(=O)N(C4CC4)C4CC4)cc3)n2)c2cc(-c3cn4nc(OC)sc4n3)oc2c1 [Example 316]  9.02
31. CCc1sc(-c2ccc(C(=O)N(C)C)cc2)nc1COc1cc(OC)cc2oc(-c3cn4nc(OC)sc4n3)cc12 [Example 44, 4-(5-Ethyl-4-(((6-methoxy-2-(2-methoxyimidazo[2,1-b][1,3,4]thiadiazol-6-yl)benzofuran-4-yl)oxy)methyl)thiazol-2-yl)-N,N-dimethylbenzamide]  9.05
32. COc1cc(OCc2csc(-c3ccc(C(=O)NC(C)C)cc3)n2)c2cc(-c3cn4nc(OC)sc4n3)oc2c1 [Example 304]  9.06
33. COc1cc(OCc2csc(-c3ccc(C(=O)N4CCCCCC4)cc3)n2)c2cc(-c3cn4nc(OC)sc4n3)oc2c1 [Example 303]  9.07
34. COc1cc(OCc2csc(N3CCSCC3)n2)c2cc(-c3cn4nc(C)ccc4n3)oc2c1 [Example 258]  9.09
35. CCN(CC1CC1)C(=O)c1ccc(-c2nc(COc3cc(OC)cc4oc(-c5cn6nc(OC)sc6n5)cc34)cs2)cc1 [Example 312]  9.11
36. COc1cc(OCc2csc(N3CCN(c4ccccc4)CC3)n2)c2cc(-c3cn4nc(C)ccc4n3)oc2c1 [Example 262]  9.12
37. COc1cc(OCc2csc(-c3ccc(C(=O)NCCO)cc3)n2)c2cc(-c3cn4nc(OC)sc4n3)oc2c1 [Example 293]  9.14
38. COCCOCc1nc(COc2cc(OC)cc3oc(-c4cn5nc(OC)sc5n4)cc23)cs1 [Example 6, 2-Methoxy-6-(6-methoxy-4-((2-((2-methoxyethoxy)methyl)thiazol-4-yl)methoxy)benzofuran-2-yl)imidazo[2,1-b][1,3,4]thiadiazole]  9.17
39. CCN(C)C(=O)c1ccc(-c2nc(COc3cc(OC)cc4oc(-c5cn6nc(OC)sc6n5)cc34)cs2)cc1 [Example 308]  9.19
40. COc1cc(OCc2csc(-c3ccc(C(=O)N4CC(O)C4)cc3)n2)c2cc(-c3cn4nc(OC)sc4n3)oc2c1 [Example 290]  9.22
41. COc1cc(OCc2csc(N3CCC(C)CC3)n2)c2cc(-c3cn4nc(C)ccc4n3)oc2c1 [Example 259]  9.24
42. CCN(C(=O)c1ccc(-c2nc(COc3cc(OC)cc4oc(-c5cn6nc(OC)sc6n5)cc34)cs2)cc1)C1CC1 [Example 299]  9.26
43. CCCN(CC)C(=O)c1ccc(-c2nc(COc3cc(OC)cc4oc(-c5cn6nc(OC)sc6n5)cc34)cs2)cc1 [Example 309]  9.27
44. COc1cc(OCc2csc(-c3ccc(C(=O)N(C)C(C)(C)C)cc3)n2)c2cc(-c3cn4nc(OC)sc4n3)oc2c1 [Example 297]  9.28
45. COc1cc(OCc2csc(-c3ccc(C(=O)N(C)C(C)C)cc3)n2)c2cc(-c3cn4nc(OC)sc4n3)oc2c1 [Example 310]  9.28
46. CCN(C(=O)c1ccc(-c2nc(COc3cc(OC)cc4oc(-c5cn6nc(OC)sc6n5)cc34)cs2)cc1)C(C)C [Example 287]  9.32
47. COCCN(C)C(=O)c1ccc(-c2nc(COc3cc(OC)cc4oc(-c5cn6nc(OC)sc6n5)cc34)cs2)cc1 [Example 39]  9.34
48. COc1cc(OCc2csc(-c3ccc(C(=O)N4CCC(C)CC4)cc3)n2)c2cc(-c3cn4nc(OC)sc4n3)oc2c1 [Example 302]  9.36
49. CCCN(C(=O)c1ccc(-c2nc(COc3cc(OC)cc4oc(-c5cn6nc(OC)sc6n5)cc34)cs2)cc1)C(C)C1CC1 (centres unmarked) [Example 313]  9.37
50. COc1cc(OCc2csc(-c3ccc(C(=O)N(C)CCO)cc3)n2)c2cc(-c3cn4nc(OC)sc4n3)oc2c1 [Example 300]  9.38
51. COc1cc(OCc2csc(-c3ccc(C(=O)N4CC(OC)C4)cc3)n2)c2cc(-c3cn4nc(OC)sc4n3)oc2c1 [Example 294]  9.40
52. COc1cc(OCc2csc(-c3ccc(C(=O)N(C)CC4CC4)cc3)n2)c2cc(-c3cn4nc(OC)sc4n3)oc2c1 [Example 314]  9.43
53. CCN(CCC#N)C(=O)c1ccc(-c2nc(COc3cc(OC)cc4oc(-c5cn6nc(OC)sc6n5)cc34)cs2)cc1 [Example 292]  9.57

molecular target: T1, PAR4; experiment: Gamma thrombin induced platelet aggregation assay (PRP assay); format: cell-based; conditions: human platelet rich plasma, 96-well microplate
Description: Platelet aggregation can be monitored in a 96-well microplate aggregation assay format or using standard platelet aggregometer.
The platelet rich plasma was isolated by centrifugation at 170 g for 14 minutes.
The ability of the compounds of the current invention to inhibit platelet aggregation induced by gamma-thrombin was tested in a 96-well microplate aggregation assay format. Briefly, PRP or washed platelet suspension (100 μl) was pre-incubated for 5 minutes at room temperature with varying concentrations of compounds. Aggregation was initiated by ˜10-50 nM gamma thrombin (Haematologic Technologies, Essex Junction, Vt.), which was titrated daily to achieve 80% platelet aggregation. Refludan at 1 U/mL (Berlex, Montville, N.J.) was added to the gamma thrombin sample to prevent PAR1 activation induced by residual alpha-thrombin contamination. The plate was then placed into a 37° C. Molecular Devices (Sunnyvale, Calif.) SPECTRAMAX® Plus Plate Reader. […] The plate also included an untreated control sample which served as ODmax, while buffer containing no platelets was the ODmin. Platelet aggregation was determined by subtracting the ODmax from the ODmin for the 100% aggregation value. In experimental samples, the observed transmission was subtracted from the minimum value and then compared to the 100% aggregation value to determine the percentage aggregation. IC50 values are determined using Excel Fit software.

In order of rising pIC50:
1. COc1cc(OCc2cscn2)c2cc(-c3cn4nc(OC)sc4n3)oc2c1 [Example 34]  5.63
2. COCCOCc1nc(COc2cc(OC)cc3oc(-c4cn5nc(OC)sc5n4)cc23)cs1 [Example 6, 2-Methoxy-6-(6-methoxy-4-((2-((2-methoxyethoxy)methyl)thiazol-4-yl)methoxy)benzofuran-2-yl)imidazo[2,1-b][1,3,4]thiadiazole]  5.69
3. COc1cc(OCc2csc(-c3ccccc3)n2)c2nc(-c3cn4nc(SC)sc4n3)oc2c1 [Example 201, 6-Methoxy-2-(2-(methylthio)imidazo[2,1-b][1,3,4]thiadiazol-6-yl)-4-((2-phenylthiazol-4-yl)methoxy)benzo[d]oxazole]  6.81
4. COc1cc(OCc2nc(C3(F)CCOCC3)sc2C)c2cc(-c3cn4nc(OC)sc4n3)oc2c1 [Example 125, 6-(4-((2-(4-Fluorotetrahydro-2H-pyran-4-yl)-5-methylthiazol-4-yl)methoxy)-6-methoxybenzofuran-2-yl)-2-methoxyimidazo[2,1-b][1,3,4]-thiadiazole]  8.24
5. COCCN(C)C(=O)c1ccc(-c2nc(COc3cc(OC)cc4oc(-c5cn6nc(OC)sc6n5)cc34)cs2)cc1 [Example 39]  8.68
6. CCc1sc(-c2ccc(C(=O)N(C)C)cc2)nc1COc1cc(OC)cc2oc(-c3cn4nc(OC)sc4n3)cc12 [Example 44, 4-(5-Ethyl-4-(((6-methoxy-2-(2-methoxyimidazo[2,1-b][1,3,4]thiadiazol-6-yl)benzofuran-4-yl)oxy)methyl)thiazol-2-yl)-N,N-dimethylbenzamide]  8.70
